The results in this text go back to patent US10973832B2, “Muscarinic M1 receptor agonists” (Heptares Therapeutics Limited, priority 2011, dated 2021).

Common to all, as to type: cell-based
Assay [1] has as its target T1, human muscarinic M1 receptor (Homo sapiens, UniProt P11229).
T1 sequence (P11229 1-460): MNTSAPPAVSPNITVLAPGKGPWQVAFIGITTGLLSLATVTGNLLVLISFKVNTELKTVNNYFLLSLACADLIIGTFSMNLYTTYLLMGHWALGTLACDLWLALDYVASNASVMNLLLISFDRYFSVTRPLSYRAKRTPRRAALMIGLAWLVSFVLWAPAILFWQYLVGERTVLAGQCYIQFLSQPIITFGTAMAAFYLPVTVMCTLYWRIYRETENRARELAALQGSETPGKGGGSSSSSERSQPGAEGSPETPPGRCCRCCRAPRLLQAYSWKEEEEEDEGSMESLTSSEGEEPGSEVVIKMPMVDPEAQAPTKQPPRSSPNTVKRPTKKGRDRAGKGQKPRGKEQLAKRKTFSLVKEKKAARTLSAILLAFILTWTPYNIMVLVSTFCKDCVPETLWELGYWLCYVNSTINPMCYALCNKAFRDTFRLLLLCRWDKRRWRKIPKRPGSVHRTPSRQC
The experiment in a line: Phospho-ERK1/2 assay, muscarinic M1. The following applies: for EC50: CHO cells expressing human M1, phospho-ERK1/2 Alphascreen, read-out: pEC50 M1 (converted); for Emax: CHO, read-out: % Emax cf. ACh (M1). The method, then:
(§1) Functional assays were performed using the Alphascreen Surefire phospho-ERK1/2 assay (Crouch & Osmond, Comb. Chem. High Throughput Screen, 2008). ERK1/2 phosphorylation is a downstream consequence of both Gq/11 and Gi/o protein coupled receptor activation, making it highly suitable for the assessment of M1, M3 (Gq/11 coupled) and M2, M4 receptors (Gi/o coupled), rather than using different assay formats for different receptor subtypes. CHO cells stably expressing the human muscarinic M1, M2, M3 or M4 receptor were plated (25K/well) onto 96-well tissue culture plates in MEM-alpha+10% dialysed FBS. Once adhered, cells were serum-starved overnight. Agonist stimulation was performed by the addition of 5 μL agonist to the cells for 5 min (37° C.). Media was removed and 50 μL of lysis buffer added. After 15 min, a 4 μL sample was transferred to 384-well plate and 7 μL of detection mixture added. Plates were incubated for 2 h with gentle agitation in the dark and then read on a PHERAstar plate reader.
(§2) pEC50 and Emax figures were calculated from the resulting data for each receptor subtype.
In general terms: In Alpha technology, singlet oxygen from a donor bead excites a nearby acceptor bead.

In assay [2] the target is T2, human muscarinic M2 receptor (Homo sapiens, UniProt P08172).
T2 sequence (P08172 1-466): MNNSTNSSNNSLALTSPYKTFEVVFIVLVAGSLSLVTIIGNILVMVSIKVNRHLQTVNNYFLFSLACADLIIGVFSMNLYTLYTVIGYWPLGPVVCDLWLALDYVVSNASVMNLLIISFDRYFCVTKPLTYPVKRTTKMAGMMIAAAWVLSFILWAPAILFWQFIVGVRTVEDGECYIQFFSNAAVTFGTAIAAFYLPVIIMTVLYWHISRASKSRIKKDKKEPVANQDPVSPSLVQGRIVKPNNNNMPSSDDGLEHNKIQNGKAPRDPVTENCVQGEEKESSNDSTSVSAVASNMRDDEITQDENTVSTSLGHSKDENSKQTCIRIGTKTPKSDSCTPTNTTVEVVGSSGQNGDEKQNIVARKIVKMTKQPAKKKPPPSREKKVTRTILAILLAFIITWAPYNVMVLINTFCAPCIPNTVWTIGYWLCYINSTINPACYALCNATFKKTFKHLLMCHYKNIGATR
The assay is described as follows: Phospho-ERK1/2 assay, muscarinic M2. The following applies: for EC50: CHO cells expressing human M2, phospho-ERK1/2 Alphascreen, read-out: pEC50 M2 (converted); for Emax: CHO, read-out: % Emax cf. ACh (M2). As for the experimental part: as §1, §2

Assay [3] has as its target T3, human muscarinic M3 receptor (Homo sapiens, UniProt P20309).
T3 construct: expressed in transfected cells
The assay is described as follows: Phospho-ERK1/2 assay, muscarinic M3. The following applies: for EC50: CHO cells expressing human M3, phospho-ERK1/2 Alphascreen, read-out: pEC50 M3 (converted); for Emax: CHO, read-out: % Emax cf. ACh (M3). The method, then: as §1, §2

Assay [4] has as its target T4, human muscarinic M4 receptor (Homo sapiens, UniProt P08173).
T4 construct: expressed in transfected cells
T4 sequence (P08173 1-479): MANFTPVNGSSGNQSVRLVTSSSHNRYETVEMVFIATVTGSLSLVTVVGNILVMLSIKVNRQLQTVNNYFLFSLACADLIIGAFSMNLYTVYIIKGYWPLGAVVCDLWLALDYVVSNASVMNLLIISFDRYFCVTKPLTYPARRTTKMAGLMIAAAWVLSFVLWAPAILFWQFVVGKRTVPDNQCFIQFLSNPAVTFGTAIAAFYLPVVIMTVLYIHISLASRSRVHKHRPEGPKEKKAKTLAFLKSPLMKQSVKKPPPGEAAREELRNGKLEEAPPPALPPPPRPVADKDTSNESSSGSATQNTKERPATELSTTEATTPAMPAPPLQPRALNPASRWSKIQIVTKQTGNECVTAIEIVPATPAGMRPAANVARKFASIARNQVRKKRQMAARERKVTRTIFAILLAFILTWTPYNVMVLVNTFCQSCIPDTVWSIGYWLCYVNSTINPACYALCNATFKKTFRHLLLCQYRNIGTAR
The assay is described as follows: Phospho-ERK1/2 assay, muscarinic M4. The following applies: for EC50: CHO cells expressing human M4, phospho-ERK1/2 Alphascreen, read-out: pEC50 M4 (converted); for Emax: CHO, read-out: % Emax cf. ACh (M4). As for the experimental part: as §1, §2

Bounds are passed on as bounds.

T3 sequence (P20309 whole entry): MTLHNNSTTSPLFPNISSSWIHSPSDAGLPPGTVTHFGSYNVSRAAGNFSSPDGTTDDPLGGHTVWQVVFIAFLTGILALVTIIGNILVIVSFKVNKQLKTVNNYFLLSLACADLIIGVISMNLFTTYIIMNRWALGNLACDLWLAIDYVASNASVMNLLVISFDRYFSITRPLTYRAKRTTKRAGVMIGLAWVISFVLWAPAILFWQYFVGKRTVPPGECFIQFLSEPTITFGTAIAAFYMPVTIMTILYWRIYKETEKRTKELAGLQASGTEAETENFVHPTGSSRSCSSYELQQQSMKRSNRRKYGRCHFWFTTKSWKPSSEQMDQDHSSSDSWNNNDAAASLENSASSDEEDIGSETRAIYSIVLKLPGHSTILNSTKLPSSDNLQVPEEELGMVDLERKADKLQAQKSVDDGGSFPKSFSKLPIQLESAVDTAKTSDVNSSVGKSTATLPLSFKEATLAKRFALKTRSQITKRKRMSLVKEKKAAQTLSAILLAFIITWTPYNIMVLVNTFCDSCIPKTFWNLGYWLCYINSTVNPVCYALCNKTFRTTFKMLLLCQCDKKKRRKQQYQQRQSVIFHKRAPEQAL

In the case of `CCOC(=O)N1CCCC(N2CCC(F)(C(=O)NC(C)(C)CC)CC2)CC1` (centres unmarked) [Example 41, ethyl 4-(4-fluoro-4-((1,1-dimethylpropyl)carbamoyl)piperidin-1-yl)azepane-1-carboxylate], the EC50 in assay [1] was 39.8 nM; in assay [2], over 20000 nM; in assay [3], over 20000 nM; in assay [4] it was 257 nM. Also, the Emax in assay [1] worked out at 97%; in assay [2], 41%; in assay [3] it was 12%; in assay [4], 88%.
With `CCOC(=O)N1CCCC(N2CCC(F)(C(=O)NCC3CCCC3)CC2)CC1` (centres unmarked) [Example 53, ethyl 4-(4-fluoro-4-((cyclopentylmethyl)carbamoyl)piperidin-1-yl)azepane-1-carboxylate], the EC50 in assay [1] was 97.7 nM; in assay [2] it was over 20000 nM; in assay [3], over 20000 nM; in assay [4], 977 nM. In addition, the Emax in assay [1] was determined as 122%; in assay [2] it was 9%; in assay [3], 17%; in assay [4], 90%.
Turning to `CCOC(=O)N1CCCC(N2CCC(F)(C(=O)NCC3CC3)CC2)CC1` (centres unmarked) [Example 52, ethyl 4-(4-fluoro-4-((cyclopropylmethyl)carbamoyl)piperidin-1-yl)azepane-1-carboxylate], the EC50 in assay [1] was 229 nM; in assay [2] it was over 20000 nM; in assay [3] it was over 20000 nM; in assay [4], 501 nM. Also, the Emax in assay [1] amounted to 95%; in assay [2] it was 9%; in assay [3], 5%; in assay [4], 84%.
`CCOC(=O)N1CCC[C@H](N2CCC(C(=O)NCC(C)C)CC2)CC1` [Example 63]: the EC50 is 69.2 nM in assay [1], over 20000 nM in assay [2], over 20000 nM in assay [3] and 646 nM in assay [4]. The Emax was determined as 107% in assay [1], 5% in assay [2], 5% in assay [3] and 89% in assay [4].
For the molecule `CCOC(=O)N1CCCC(N2CCC(OC)(C(=O)NC3(C)CCC3)CC2)CC1` (centres unmarked) [Example 79, ethyl 4-{4-methoxy-4-[(1-methylcyclobutyl)carbamoyl]piperidin-1-yl}azepane-1-carboxylate], the EC50 in assay [1] is 97.7 nM; in assay [2] it was over 20000 nM; in assay [3] it was over 20000 nM; in assay [4] it was 871 nM. Moreover, the Emax in assay [1] was 113%; in assay [2] it was 7%; in assay [3] it was 27%; in assay [4], 27%.
With `CCOC(=O)N1CCCC(N2CCC(F)(C(=O)NC(C)(C)C3CC3)CC2)CC1` (centres unmarked) [Example 54, ethyl 4-(4-fluoro-4-((2-cyclopropylpropan-2-yl)carbamoyl)piperidin-1-yl)azepane-1-carboxylate], the EC50 is 49 nM in assay [1], over 20000 nM in assay [2], over 20000 nM in assay [3] and 229 nM in assay [4]. Besides, the Emax in assay [1] was determined as 124%; in assay [2], 15%; in assay [3], 6%; in assay [4], 114%.
As to `CCOC(=O)N1CCCC(N2CCC(F)(C(=O)NCC(C)(C)C)CC2)CC1` (centres unmarked) [Example 46, ethyl 4-(4-fluoro-4-((2,2-dimethylpropyl)carbamoyl)pipendin-1-yl)azepane-1-carboxylate], the EC50 in assay [1] was 105 nM; in assay [2] it was over 20000 nM; in assay [3], over 20000 nM; in assay [4] it was 1070 nM. The maximum response (Emax) in assay [1] was found to be 90%; in assay [2], 9%; in assay [3] it was 1%; in assay [4] it was 63%.
Regarding `CCOC(=O)N1CCCC(N2CCC(C)(C(=O)NC3(C)CCC3)CC2)CC1` (centres unmarked) [Example 78, ethyl 4-{4-methyl-4-[(1-methylcyclobutyl)carbamoyl]piperidin-1-yl}azepane-1-carboxylate], the EC50 is 42.7 nM in assay [1], over 20000 nM in assay [2], over 20000 nM in assay [3] and 417 nM in assay [4]. The Emax amounted to 115% in assay [1], 5% in assay [2], 0% in assay [3] and 51% in assay [4].
In the case of `C#CCOC(=O)N1CCCC(N2CCC(C(=O)NCC(C)C)CC2)CC1` (centres unmarked) [Example 57, prop-2-yn-1-yl-4-(4-((2-methylpropyl)carbamoyl)piperidin-1-yl)azepane-1-carboxylate], the EC50 was 93.3 nM in assay [1], over 20000 nM in assay [2], over 20000 nM in assay [3] and 417 nM in assay [4]. Further, the Emax in assay [1] was determined as 93%; in assay [2] it was 5%; in assay [3], 8%; in assay [4], 82%.
In the case of `CC#CCOC(=O)N1CCCC(N2CCC(OC)(C(=O)NC3(C)CCC3)CC2)CC1` (centres unmarked) [Example 80, but-2-yn-1-yl 4-{4-methoxy-4-[(1-methylcyclobutyl)carbamoyl]piperidin-1-yl}azepane-1-carboxylate], the EC50 in assay [1] was 37.2 nM; in assay [2], over 20000 nM; in assay [3], over 20000 nM; in assay [4] it was 525 nM. In addition, the Emax in assay [1] worked out at 89%; in assay [2], 15%; in assay [3], 7%; in assay [4], 71%.
Turning to `CCOC(=O)N1CCCC(N2CCC(OC)(C(=O)NCC3(C)CCC3)CC2)CC1` (centres unmarked) [Example 81, ethyl 4-(4-methoxy-4-{[(1-methylcyclobutyl)methyl]carbamoyl}piperidin-1-yl)azepane-1-carboxylate], the EC50 in assay [1] is 141 nM; in assay [2], over 20000 nM; in assay [3], over 20000 nM; in assay [4] it was over 20000 nM. The Emax in assay [1] is 110%; in assay [2], 0%; in assay [3], 7%; in assay [4], 9%.
For `CCOC(=O)N1CCCC(N2CCC(C(=O)NCC(C)CC)CC2)CC1` (centres unmarked) [Example 8, ethyl 4-(4-((2-methylbutyl)carbamoyl)piperidin-1-yl)azepane-1-carboxylate], the EC50 is 151 nM in assay [1], over 20000 nM in assay [2], over 20000 nM in assay [3] and 1660 nM in assay [4]. Further, the Emax in assay [1] amounted to 93%; in assay [2] it was 3%; in assay [3] it was 2%; in assay [4] it was 55%.
`CCOC(=O)N1CCC[C@@H](N2CCC(C(=O)NC3(C)CCC3)CC2)CC1` [Example 66, ethyl (4R)-4-{4-[(1-methylcyclobutyl)carbamoyl]piperidin-1-yl}azepane-1-carboxylate]: the EC50 in assay [1] was 275 nM; in assay [2], over 20000 nM; in assay [3] it was over 20000 nM; in assay [4] it was 2450 nM. The Emax was 94% in assay [1], 12% in assay [2], 0% in assay [3] and 66% in assay [4].

By Emax is commonly meant the size of the effect at its maximum, as opposed to the concentration needed.
